# Reference: PubChem BioAssay AID1963986 (Molecular Pharmacology Branch, DTP, NCI, 2024)
# pIC50: −log10 of the molar value.
# System: 171881-019-R-J1-PDC tumor spheroid viability
# Test: Anticancer human tumor 171881-019-R-J1-PDC patient-derived invasive breast carcinoma cell line growth inhibition [PI3K]
# Conditions: spheroids with HUVEC and MSC; for pIC50: curve of first compound; for viability, T/C: stronger effect = lower value
# Summary of the method: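 Stroma-containing spheroids: tumor line, pooled-donor HUVEC, hMSC. Treatments: targeted agents with PI3K inhibitors. Dosing: clinically relevant, half-log spacing, 10 microM ceiling without known Cmax. Read-out: cell viability.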
# [1] = second compound 0.0316 µM, first compound 0.0316 µM
# [2] = second compound 0.0316 µM, first compound 0.1 µM
# [3] = second compound 0.0316 µM, first compound 0.316 µM
# [4] = second compound 0.0316 µM, first compound 1 µM
# [5] = second compound 0.0316 µM, first compound 3.16 µM
# [6] = second compound 0.0316 µM, first compound 10 µM
# [7] = second compound 0.1 µM, first compound 0.0316 µM
# [8] = second compound 0.1 µM, first compound 0.1 µM
# [9] = second compound 0.1 µM, first compound 0.316 µM
# [10] = second compound 0.1 µM, first compound 1 µM
# [11] = second compound 0.1 µM, first compound 3.16 µM
# [12] = second compound 0.1 µM, first compound 10 µM
# [13] = second compound 0.316 µM, first compound 0.0316 µM
# [14] = second compound 0.316 µM, first compound 0.1 µM
# [15] = second compound 0.316 µM, first compound 0.316 µM
# [16] = second compound 0.316 µM, first compound 1 µM
# [17] = second compound 0.316 µM, first compound 3.16 µM
# [18] = second compound 0.316 µM, first compound 10 µM
# [19] = second compound 1 µM, first compound 0.0316 µM
# [20] = second compound 1 µM, first compound 0.1 µM
# [21] = second compound 1 µM, first compound 0.316 µM
# [22] = second compound 1 µM, first compound 1 µM
# [23] = second compound 1 µM, first compound 3.16 µM
# [24] = second compound 1 µM, first compound 10 µM
# [25] = second compound 3.16 µM, first compound 0.0316 µM
# [26] = second compound 3.16 µM, first compound 0.1 µM
# [27] = second compound 3.16 µM, first compound 0.316 µM
# [28] = second compound 3.16 µM, first compound 1 µM
# [29] = second compound 3.16 µM, first compound 3.16 µM
# [30] = second compound 3.16 µM, first compound 10 µM
# [31] = second compound 10 µM, first compound 0.0316 µM
# [32] = second compound 10 µM, first compound 0.1 µM
# [33] = second compound 10 µM, first compound 0.316 µM
# [34] = second compound 10 µM, first compound 1 µM
# [35] = second compound 10 µM, first compound 3.16 µM
# [36] = second compound 10 µM, first compound 10 µM
# 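Further: spheroids exposed to compound for 7 days before viability read.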
# 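Wherever viability, T/C is given: 100% = DMSO vehicle-treated spheroids.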
structure (smiles),measurement,setting,value
C=CC(=O)N1CCN(c2nc(=O)n(-c3c(C)ccnc3C(C)C)c3nc(-c4c(O)cccc4F)c(F)cc23)C(C)C1 (stereo unspecified) + CC(Nc1ncnc2nc[nH]c12)c1cc2cccc(Cl)c2c(=O)n1-c1ccccc1,pIC50,second compound 0.0316 µM,< 5.00
same,pIC50,second compound 0.1 µM,< 5.00
same,pIC50,second compound 0.316 µM,< 5.00
same,pIC50,second compound 1 µM,< 5.00
same,pIC50,second compound 3.16 µM,5.04
same,pIC50,second compound 10 µM,5.28
same,"viability, T/C",[1],95.3%
same,"viability, T/C",[2],94.3%
same,"viability, T/C",[3],94.6%
same,"viability, T/C",[4],94.3%
same,"viability, T/C",[5],106%
same,"viability, T/C",[6],58.9%
same,"viability, T/C",[7],104%
same,"viability, T/C",[8],88.7%
same,"viability, T/C",[9],87.2%
same,"viability, T/C",[10],84.1%
same,"viability, T/C",[11],108%
same,"viability, T/C",[12],57.6%
same,"viability, T/C",[13],108%
same,"viability, T/C",[14],103%
same,"viability, T/C",[15],98.9%
same,"viability, T/C",[16],112%
same,"viability, T/C",[17],105%
same,"viability, T/C",[18],61%
same,"viability, T/C",[19],101%
same,"viability, T/C",[20],105%
same,"viability, T/C",[21],106%
same,"viability, T/C",[22],112%
same,"viability, T/C",[23],99.4%
same,"viability, T/C",[24],53.4%
same,"viability, T/C",[25],96.3%
same,"viability, T/C",[26],88.3%
same,"viability, T/C",[27],90.6%
same,"viability, T/C",[28],93.1%
same,"viability, T/C",[29],88.2%
same,"viability, T/C",[30],46.6%
same,"viability, T/C",[31],63.9%
same,"viability, T/C",[32],60.9%
same,"viability, T/C",[33],65.6%
same,"viability, T/C",[34],68.6%
same,"viability, T/C",[35],64.5%
same,"viability, T/C",[36],32%
CC(Cn1ccc(-c2ccc(C#N)c(Cl)c2)n1)NC(=O)c1cc(C(C)O)[nH]n1 (stereo unspecified) + CC(Nc1ncnc2nc[nH]c12)c1cc2cccc(Cl)c2c(=O)n1-c1ccccc1,pIC50,second compound 0.0316 µM,< 5.00
same,pIC50,second compound 0.1 µM,< 5.00
same,pIC50,second compound 0.316 µM,< 5.00
same,pIC50,second compound 1 µM,< 5.00
same,pIC50,second compound 3.16 µM,< 5.00
same,pIC50,second compound 10 µM,5.29
same,"viability, T/C",[1],85.5%
same,"viability, T/C",[2],85%
same,"viability, T/C",[3],93%
same,"viability, T/C",[4],70.3%
same,"viability, T/C",[5],68.9%
same,"viability, T/C",[6],59.1%
same,"viability, T/C",[7],80.6%
same,"viability, T/C",[8],105%
same,"viability, T/C",[9],87.8%
same,"viability, T/C",[10],77.6%
same,"viability, T/C",[11],81%
same,"viability, T/C",[12],62.1%
same,"viability, T/C",[13],96.3%
same,"viability, T/C",[14],94.9%
same,"viability, T/C",[15],88.5%
same,"viability, T/C",[16],91.2%
same,"viability, T/C",[17],82%
same,"viability, T/C",[18],66.7%
same,"viability, T/C",[19],104%
same,"viability, T/C",[20],93.8%
same,"viability, T/C",[21],87.8%
same,"viability, T/C",[22],94.9%
same,"viability, T/C",[23],92%
same,"viability, T/C",[24],64.7%
same,"viability, T/C",[25],86.7%
same,"viability, T/C",[26],93.4%
same,"viability, T/C",[27],83.6%
same,"viability, T/C",[28],82.8%
same,"viability, T/C",[29],85%
same,"viability, T/C",[30],58.9%
same,"viability, T/C",[31],60.3%
same,"viability, T/C",[32],59.5%
same,"viability, T/C",[33],55.9%
same,"viability, T/C",[34],56.2%
same,"viability, T/C",[35],57.4%
same,"viability, T/C",[36],40.1%
Cn1nccc1Nc1nccc(-c2ccn(C(CO)c3ccc(Cl)c(F)c3)c(=O)c2)n1 (stereo unspecified) + CC(Nc1ncnc2nc[nH]c12)c1cc2cccc(Cl)c2c(=O)n1-c1ccccc1,pIC50,second compound 0.0316 µM,6.26
same,pIC50,second compound 0.1 µM,6.33
same,pIC50,second compound 0.316 µM,6.33
same,pIC50,second compound 1 µM,6.46
same,pIC50,second compound 3.16 µM,6.77
same,pIC50,second compound 10 µM,7.45
same,"viability, T/C",[1],94%
same,"viability, T/C",[2],84%
same,"viability, T/C",[3],62.2%
same,"viability, T/C",[4],36.6%
same,"viability, T/C",[5],24%
same,"viability, T/C",[6],20.7%
same,"viability, T/C",[7],91.1%
same,"viability, T/C",[8],88.1%
same,"viability, T/C",[9],54.7%
same,"viability, T/C",[10],37.1%
same,"viability, T/C",[11],23.6%
same,"viability, T/C",[12],19.9%
same,"viability, T/C",[13],104%
same,"viability, T/C",[14],89.6%
same,"viability, T/C",[15],56.9%
same,"viability, T/C",[16],35.1%
same,"viability, T/C",[17],23.1%
same,"viability, T/C",[18],18.5%
same,"viability, T/C",[19],98.4%
same,"viability, T/C",[20],77.4%
same,"viability, T/C",[21],51.4%
same,"viability, T/C",[22],31.3%
same,"viability, T/C",[23],21.3%
same,"viability, T/C",[24],15.7%
same,"viability, T/C",[25],79.3%
same,"viability, T/C",[26],61.2%
same,"viability, T/C",[27],36%
same,"viability, T/C",[28],21.8%
same,"viability, T/C",[29],14.9%
same,"viability, T/C",[30],13%
same,"viability, T/C",[31],51.3%
same,"viability, T/C",[32],39.2%
same,"viability, T/C",[33],27.9%
same,"viability, T/C",[34],15%
same,"viability, T/C",[35],10.6%
same,"viability, T/C",[36],6.93%
